≈ marks a conversion by molar mass, not a printed value.
Legend:
Glutamate racemase = target: T1, Glutamate racemase (Enterococcus faecalis (strain ATCC 700802 / V583), UniProt Q836J0); test: Inhibition of Enterococcus faecalis MurI
T1 sequence (Q836J0 whole entry): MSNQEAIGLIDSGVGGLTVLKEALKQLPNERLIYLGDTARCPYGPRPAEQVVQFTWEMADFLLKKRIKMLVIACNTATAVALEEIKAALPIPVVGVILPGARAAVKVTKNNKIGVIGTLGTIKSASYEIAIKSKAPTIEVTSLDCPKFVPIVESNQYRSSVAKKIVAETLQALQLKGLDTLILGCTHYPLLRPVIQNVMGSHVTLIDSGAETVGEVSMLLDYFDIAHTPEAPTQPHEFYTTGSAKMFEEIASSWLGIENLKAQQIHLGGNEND

[1] = Inhibition of Enterococcus faecium MurI
[2] = Inhibition of Staphylococcus aureus MurI
[3] = Solubility by nephelometry; format: physicochemical
Enterococcus faecalis = test: Antibacterial activity against Enterococcus faecalis; format: functional
Enterococcus faecium = test: Antibacterial activity against Enterococcus faecium; format: functional
Staphylococcus aureus = test: Antibacterial activity against Staphylococcus aureus; format: functional

IC50 (Glutamate racemase) [µM] | IC50 [1] [µM] | IC50 [2] [µM] | solubility kinetic [3] [µM] | MIC (Enterococcus faecalis) [µg/mL] | MIC (Enterococcus faecium) [µg/mL] | MIC (Staphylococcus aureus) [µg/mL] | Compound
> 400 | > 400 | > 400 | 3.1 (≈ 1.36 µg/mL) | 16 (≈ 36.6 µM) | 16 (≈ 36.6 µM) | 16 (≈ 36.6 µM) | CCCCOc1nc(NCc2ccccc2)c2ncn(Cc3c(F)ccc(C)c3F)c2n1
167 | > 400 | > 400 | 100 (≈ 37.6 µg/mL) | 16 (≈ 42.5 µM) | 16 (≈ 42.5 µM) | 16 (≈ 42.5 µM) | CC(=O)NC(C)Oc1nc(N)c2ncn(Cc3c(F)ccc(C)c3F)c2n1 (stereo not drawn)
4.3 | 6.2 | > 400 | 50 (≈ 17.5 µg/mL) | 16 (≈ 45.7 µM) | 16 (≈ 45.7 µM) | 16 (≈ 45.7 µM) | CCCCSc1nc(N)c2nnn(Cc3c(F)cccc3F)c2n1
5.4 | 6.5 | > 400 | 25 (≈ 9.09 µg/mL) | 16 (≈ 44 µM) | 16 (≈ 44 µM) | 16 (≈ 44 µM) | CCCCSc1nc(N)c2ncn(Cc3c(F)ccc(C)c3F)c2n1
9.8 | 27 | > 400 | 50 (≈ 17.4 µg/mL) | 16 (≈ 46.1 µM) | 16 (≈ 46.1 µM) | 16 (≈ 46.1 µM) | CCCCOc1nc(N)c2ncn(Cc3c(F)ccc(C)c3F)c2n1
4.1 | 6 | > 400 | 50 (≈ 17.5 µg/mL) | 16 (≈ 45.8 µM) | 16 (≈ 45.8 µM) | 16 (≈ 45.8 µM) | CCCCSc1nc(N)c2ncn(Cc3c(F)cccc3F)c2n1
4.3 | 4.4 | > 400 | 25 (≈ 11.3 µg/mL) | 16 (≈ 35.4 µM) | 16 (≈ 35.4 µM) | 16 (≈ 35.4 µM) | CCC(Oc1nc(N)c2ncn(Cc3c(F)ccc(C)c3F)c2n1)C(F)(F)C(F)(F)F (stereo not drawn)
26.1 | 42.5 | > 400 | 100 (≈ 33.2 µg/mL) | 16 (≈ 48.1 µM) | 16 (≈ 48.1 µM) | 16 (≈ 48.1 µM) | CCCCNc1nc(N)c2ncn(Cc3c(F)cccc3F)c2n1
1.4 | 2.5 | > 400 | 25 (≈ 9.71 µg/mL) | 16 (≈ 41.2 µM) | 16 (≈ 41.2 µM) | 16 (≈ 41.2 µM) | CCCCSc1nc(N)c2ncn(Cc3cc([N+](=O)[O-])ccc3OC)c2n1
9.4 | 17.7 | > 400 | 42 (≈ 15.1 µg/mL) | 16 (≈ 44.6 µM) | 16 (≈ 44.6 µM) | 16 (≈ 44.6 µM) | CCCCSc1nc(N)c2ncn(Cc3cccc([N+](=O)[O-])c3)c2n1
11.5 | 3.75 | > 400 | 100 (≈ 36.4 µg/mL) | 16 (≈ 43.9 µM) | 16 (≈ 43.9 µM) | 16 (≈ 43.9 µM) | CCCCSc1nc2c(ncn2Cc2c(F)ccc(C)c2F)c(=O)[nH]1
1 | 1.8 | > 400 | 50 (≈ 18.4 µg/mL) | 16 (≈ 43.4 µM) | 16 (≈ 43.4 µM) | 16 (≈ 43.4 µM) | CCCCSc1ncc2ncn(Cc3c(F)ccc(Cl)c3F)c2n1
5.5 | 13.9 | > 400 | 100 (≈ 34.7 µg/mL) | 16 (≈ 46.1 µM) | 16 (≈ 46.1 µM) | 16 (≈ 46.1 µM) | CCCCOc1nc(NC)c2ncn(Cc3c(F)cccc3F)c2n1
2.2 | 2.6 | > 400 | 25 (≈ 9.6 µg/mL) | 16 (≈ 41.7 µM) | 16 (≈ 41.7 µM) | 16 (≈ 41.7 µM) | CCCCSc1nc(N)c2ncn(Cc3c(F)ccc(Cl)c3F)c2n1
38.1 | 97.8 | > 400 | 200 (≈ 69.9 µg/mL) | 16 (≈ 45.8 µM) | 16 (≈ 45.8 µM) | 16 (≈ 45.8 µM) | CCCCOc1nc(N)c2[nH]c(=O)n(Cc3c(F)cccc3F)c2n1
 | 5.5 | > 400 | 200 (≈ 89.3 µg/mL) | 16 (≈ 35.8 µM) | 16 (≈ 35.8 µM) | 16 (≈ 35.8 µM) | CCCCOc1nc(NCCN2CCOCC2)c2ncn(Cc3c(F)cccc3F)c2n1

Compound | IC50 (Glutamate racemase) [µM] | IC50 [1] [µM] | IC50 [2] [µM] | solubility kinetic [3] [µM] | MIC (Enterococcus faecalis) [µg/mL] | MIC (Enterococcus faecium) [µg/mL] | MIC (Staphylococcus aureus) [µg/mL]
CCCCOc1nc(NCc2cccnc2)c2ncn(Cc3c(F)ccc(Cl)c3F)c2n1 | 2 | 2.7 | > 400 | 18 (≈ 8.26 µg/mL) | 16 (≈ 34.9 µM) | 16 (≈ 34.9 µM) | 16 (≈ 34.9 µM)
